We go through 5 molecules from patent EP2878677A1, “Activators of protein phosphatase 5” (Deutsches Zentrum für Neurodegenerative Erkrankungen e.V. …, priority 2013, dated 2015).

This test concerns the target T1, PPH-5 (Caenorhabditis elegans, UniProt Q9NES8).
T1 construct: made in house
T1 sequence (Q9NES8 1-496): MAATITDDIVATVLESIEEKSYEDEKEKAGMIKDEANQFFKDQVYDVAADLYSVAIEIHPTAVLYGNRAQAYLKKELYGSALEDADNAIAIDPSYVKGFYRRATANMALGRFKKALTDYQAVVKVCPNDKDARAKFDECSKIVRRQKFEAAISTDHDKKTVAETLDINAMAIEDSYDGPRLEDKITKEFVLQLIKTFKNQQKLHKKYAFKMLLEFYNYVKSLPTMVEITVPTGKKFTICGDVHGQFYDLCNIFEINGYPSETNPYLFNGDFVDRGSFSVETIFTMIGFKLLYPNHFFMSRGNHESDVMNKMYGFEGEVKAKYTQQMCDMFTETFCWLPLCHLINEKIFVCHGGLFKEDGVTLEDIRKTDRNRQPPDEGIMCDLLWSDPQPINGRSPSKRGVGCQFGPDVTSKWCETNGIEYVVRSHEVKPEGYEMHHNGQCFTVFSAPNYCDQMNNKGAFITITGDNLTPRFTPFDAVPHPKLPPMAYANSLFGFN
As to the kind of experiment: pNPP-based phosphatase assay with nematode PPH-5. It is filed as biochemical, C. elegans. The note with it: for Kd: apparent KD-value in the pNPP-based assay, 20 °C; for effect on the enzymatic activity of PPH-5 in the compound screen: initial screen of 15,000 compounds, pNPP, P5SAs at 50 ng/mL. How it is done:
At some instances, the present application refers to "measuring the enzymatic activity" of an enzyme. As used herein, this means that a measured value that is proportional to or reflects the enzymatic activity of that enzyme is measured. For example, the present application may refer to "measuring the enzymatic activity of protein phosphatase 5". Typically, this means that an in vitro reaction of protein phosphatase 5 with a suitable substrate is carried out.As the substrate para-nitrophenyl phosphate (pNPP) is used. The conditions for the phosphatase reaction are 40 mM HEPES/KOH, 20 mM KCl, 5 mM MnCl2, 1 mM DTT, pH 7.5. The reaction is carried out at 20° C. The starting concentration of pNPP is 60 mM. The concentration of the compound to be tested, if present, is in the range of 50-500 nM, preferably in the range of 100-250 nM, more preferably 50, 250 or 500 nM, more preferably 250 nM. As phosphatase, bacterially expressed and purified phosphatase is used. The concentration of the phosphatase in the reaction is 30 nM. The rate at which the dephosphorylation of this substrate proceeds is monitored, typically by measuring the rate of formation of the reaction product by spectroscopic measurements (dephosphorylation of pNPP, e.g., results in generation of p-nitrophenol, a chromogenic product with strong absorbance at about 410 nm (extinction coefficient ε = 15100 cm^-1M^-1), thus allowing to monitor generation of the reaction product by monitoring the absorbance at 410 nm). If the reaction is carried out in the presence of an excess of substrate, the initial velocity at which the reaction product is generated (i.e. the slope of the initial phase of the curve in a graph plotting the absorbance at 410 nm over time) is proportional to the enzymatic activity of protein phosphatase 5under the specific reaction conditions used. Alternatively, after starting the phosphatase reaction the reaction may be allowed to proceed for a defined incubation period (usually 30 minutes), then the reaction is stopped (for example by addition of a small volume of 1 M NaOH), and the absorbance at 410 nm is measured. Upon subtraction of the absorbance of a negative control (a reaction carried out with a non-functional, for example pre-boiled, phosphatase), the obtained value is proportional to the enzymatic activity of protein phosphatase 5 under the specific reaction conditions used (since the reaction is carried out in the presence of an excess of substrate and the incubation period is chosen such that the reaction is stopped while it is still in the quasi-linear Phase). Phosphatase activity was followed by the conversion of para-nitrophenyl phosphate (pNPP) to para-nitophenole and absorption of the product at 410 nm (ε: 15100 cm^-1 M^-1) in a Varian Cary 100 spectrophotometer (Agilent Technologies, Boeblingen, Germany). The reaction was measured in 40 mM HEPES/KOH, 20 mM KCl, 5 mM MnCl2, 1 mM DTT, pH 7.5 and 60 mM pNPP at 20 °C if not indicated otherwise. Phosphatase concentration ranged from 50 to 500 nM in the assay. If indicated, Hsp90/DAF-21 peptide was supplemented in the assay at a concentration of 60 μM. The protein phosphatase 5 is a highly regulated enzyme. The autoinhibition of the phosphatase is controlled by the N-terminal TPR domain and the C-terminal αJ helix, implying a complex mechanism to control the turnover rate (Yang et al., 2005). A compound screen was carried out to identify small molecules which can alter the activity of the phosphatase. The C. elegans homolog of protein phosphatase 5 was used (activity of nematode protein phosphatase 5 (PPH-5) at 20 °C: ∼0.62 sec^-1; mammalian PP5: ∼0.12 sec^-1). The homology between nematode PPH-5 and human PP5 is pronounced with a sequence conservation of almost 80% (Figure 6). Using the substrate para-nitrophenyl phosphate (pNPP), a library of 15,000 compounds was analyzed. […]

Regarding `FC(F)(F)c1c2c(nc3c(-c4ccc(Cl)cc4)cnn13)CCC2` [P5SA-1], the Kd came to 13.3 ± 4.2 µM and the “effect on the enzymatic activity of PPH-5 in the compound screen” value (“effect on the enzymatic activity” for short) is listed as “activating effect”. Under “(sat.)”, this molecule registered a fold activation of 3.7 fold.

As to `COc1ccc(-c2nc(Cc3ccc(Cl)cc3)no2)cc1OC` [P5SA-2], the Kd came to 7.8 ± 1.4 µM and the “effect on the enzymatic activity” value is reported as “activating effect”. Besides, the fold activation ((sat.)) came to 9.6 fold.

For `CN1CCc2c(sc(-n3cccc3)c2CNC(=O)NC23CC4CC(CC(C4)C2)C3)C1` [P5SA-3], the “effect on the enzymatic activity” value was “activating effect”. In addition, the fold activation (at 714 µM) was 4.0 fold.

With `O=c1cc2nc(-c3ccc(F)cc3)nc(SCc3ccc(Br)cc3)n2[nH]1` [P5SA-4], the Kd turned out to be 25.7 ± 5.5 µM and the “effect on the enzymatic activity” value is recorded as “activating effect”. This molecule displayed a fold activation ((sat.)) of 7.8 fold.

For the molecule `CNC(=O)c1c(NC(=O)COCC(=O)Nc2sc3c(c2C(=O)NC)CCC3)sc2c1CCC2` [P5SA-5], the Kd was found to be 6.4 ± 1.8 µM and the “effect on the enzymatic activity” value was “activating effect”. For the same molecule, the “influence of MEEVD peptide on affinity to PPH-5” value (60 µM MEEVD peptide, titration by phosphatase assay) is on record as “minor influence”. For the same molecule, the fold activation ((sat.)) was determined as 8.4 fold.
